{"source": "patent US20230159527A1", "about": "“COMPOUNDS AS BCL-2 INHIBITORS” (Fochon Pharmaceuticals, Ltd., priority 2020, published 2023)", "tested_on": "Toledo cells", "test": "Cell proliferation assay, Toledo cells (MTS, 72 h)", "assay_type": "cell-based", "details": "Toledo cells, MTS, read-out: Toledo IC50", "protocol": "MTS testing kit was purchased from Promega (Madison, Wis., USA). The RPMI-1640, Fetal bovine serum and Penicillin-Streptomycin were purchased from BI (Biological Industries, Beit Haemek, Israel). Dimethyl sulfoxide (DMSO) was purchased from Sigma (St. Louis, Mo., USA). Toledo (ATCC catalog #: CRL-2631) cells were cultured in RPMI-1640 supplemented with Penicillin-Streptomycin and 10% FBS.\nTo investigate whether a compound is able to inhibit the activity of BCL-2 in cells, a mechanism-based assay using Toledo lines was developed. In this assay, the inhibition of BCL-2 was reflected by the inhibition of cell proliferation of Toledo cells. Cells were plated into 96-well plates at the optimized cell density of 30000 cells/well. Plates were incubated at 37° C., with 5% CO2 for 4h. Compounds were serially diluted and added to the plates with the final concentrations of 10000, 3333.3, 1111.1, 370.4, 123.5, 41.2, 13.7, 4.6 and 1.5 nM. Plates were incubated at 37° C., with 5% CO2 for 72 h. 20 μl MTS was added into each well and the plates were incubated at 37° C., with 5% CO2 for exactly 2 h. The absorbance was measured by a microplate reader at 490 nm. IC50 was calculated using GraphPad Prism 5.0 software.", "note": "Where two headings read alike, the source gives them in different places."}
{"molecule": "COC(=O)N1CCN(C2CC3(CCN(c4ccc(C(=O)NS(=O)(=O)c5cc6c(c([N+](=O)[O-])c5)N[C@@H]([C@H]5CC[C@](C)(O)CC5)CO6)c(Oc5cnc6[nH]cc(F)c6c5)c4)CC3)C2)[C@H](c2ccccc2C(C)C)C1", "note": "(single isomer, unassigned) [Example D-144, methyl (R or S)-4-(7-(3-((3-fluoro-1H-pyrrolo [2,3-b]pyridin-5-yl)oxy)-4-((S)-3-((1r,4S)-4-hydroxy-4-methylcyclohexyl)-5-nitro-3,4-dihydro-2H-benzo[b][1,4]oxazin-7-yl)sulfonyl)carbamoyl)phenyl)-7-azaspiro[3.5] nonan-2-yl)-3-(2-isopropylphenyl) piperazine-1-carboxylate]", "values": [{"measurement": "IC50", "setting": "Homo sapiens", "result": 1, "unit": "nM"}]}
{"molecule": "CC(C)c1ccccc1[C@@H]1CCCN1C1CC2(CCN(c3ccc(C(=O)NS(=O)(=O)c4cc5c(c([N+](=O)[O-])c4)N[C@@H]([C@H]4CC[C@](C)(O)CC4)CO5)c(Oc4cc5cc[nH]c5nc4O[C@H]4CCOC4)c3)CC2)C1", "note": "(single isomer, unassigned) [Example D-74, N-(((S)-3-((1r,4S)-4-hydroxy-4-methylcyclohexyl)-5-nitro-3,4-dihydro-2H-benzo[b][1,4]oxazin-7-yl)sulfonyl)-4-(2-((R or S)-2-(2-isopropylphenyl)pyrrolidin-1-yl)-7-azaspiro[3.5]nonan-7-yl)-2-((6-(((S)-tetrahydrofuran-3-yl)oxy)-1H-pyrrolo[2,3-b]pyridin-5-yl)oxy)benzamide]", "values": [{"measurement": "IC50", "setting": "Homo sapiens", "result": 1, "unit": "nM"}]}
{"molecule": "CC(C)c1ccccc1[C@@H]1CCCN1C1CC2(CCN(c3ccc(C(=O)NS(=O)(=O)c4cc5c(c([N+](=O)[O-])c4)N[C@@H](C[C@H]4CC[C@](C)(O)CC4)CO5)c(Oc4cnc5[nH]cc(F)c5c4)c3)CC2)C1", "note": "(single isomer, unassigned) [Example D-19, 2-((3-fluoro-1H-pyrrolo[2,3-b]pyridin-5-yl)oxy)-N-(((S)-3-(((1r,4S)-4-hydroxy-4-methylcyclohexyl)methyl)-5-nitro-3,4-dihydro-2H-benzo[b][1,4]oxazin-7-yl)sulfonyl)-4-(2-((R or S)-2-(2-isopropylphenyl)pyrrolidin-1-yl)-7-azaspiro[3.5]nonan-7-yl)benzamide]", "values": [{"measurement": "IC50", "setting": "Homo sapiens", "result": 9, "unit": "nM"}]}
{"molecule": "CC(C)c1ccccc1[C@@H]1CCCN1C1CC2(CCN(c3ccc(C(=O)NS(=O)(=O)c4cc5c(c([N+](=O)[O-])c4)N[C@@H]([C@H]4CC[C@](C)(O)CC4)CO5)c(Oc4cc5c(F)c[nH]c5nc4OC[C@H](C)O)c3)CC2)C1", "note": "(single isomer, unassigned) [Example D-221, 2-((3-fluoro-6-((S)-2-hydroxypropoxy)-1H-pyrrolo[2,3-b]pyridin-5-yl)oxy)-N-(((S)-3-((1r,4S)-4-hydroxy-4-methylcyclohexyl)-5-nitro-3,4-dihydro-2H-benzo[b][1,4]oxazin-7-yl)sulfonyl)-4-(2-((R or S)-2-(2-isopropylphenyl)pyrrolidin-1-yl)-7-azaspiro[3.5]nonan-7-yl)benzamide]", "values": [{"measurement": "IC50", "setting": "Homo sapiens", "result": 1, "unit": "nM"}]}
{"molecule": "CC(C)c1ccccc1[C@H]1CCCN1C1CC2(CCN(c3ccc(C(=O)NS(=O)(=O)c4cc5c(c([N+](=O)[O-])c4)NC([C@@H]4COCCO4)CO5)c(Oc4cnc5[nH]cc(F)c5c4)c3)CC2)C1", "note": "(single isomer, unassigned) [Example D-49b, N-(((R or S)-3-((R)-1,4-dioxan-2-yl)-5-nitro-3,4-dihydro-2H-benzo[b][1,4]oxazin-7-yl)sulfonyl)-2-((3-fluoro-1H-pyrrolo[2,3-b]pyridin-5-yl)oxy)-4-(2-((R or S)-2-(2-isopropylphenyl)pyrrolidin-1-yl)-7-azaspiro[3.5]nonan-7-yl)benzamide]", "values": [{"measurement": "IC50", "result": 1, "unit": "nM"}]}
